What follows are compounds tested against T1, LRRK2 Ser935 phosphorylation in SH-SY5Y cells over-expressing recombinant full length LRRK2 (Homo sapiens, UniProt Q5S007) (assay: Recombinant cellular LRRK2 AlphaScreen assay). Settings: LRRK2 Ser935 phosphorylation, 60 minutes, read-out: recombinant cellcular LRRK2 alphaScreen assay (pIC50) (converted).
T1 construct: A BacMam virus expressing full length recombinant LRRK2 was purchased from Invitrogen; host or cells: SH-SY5Y (BacMam transduction)
T1 sequence (Q5S007 whole entry): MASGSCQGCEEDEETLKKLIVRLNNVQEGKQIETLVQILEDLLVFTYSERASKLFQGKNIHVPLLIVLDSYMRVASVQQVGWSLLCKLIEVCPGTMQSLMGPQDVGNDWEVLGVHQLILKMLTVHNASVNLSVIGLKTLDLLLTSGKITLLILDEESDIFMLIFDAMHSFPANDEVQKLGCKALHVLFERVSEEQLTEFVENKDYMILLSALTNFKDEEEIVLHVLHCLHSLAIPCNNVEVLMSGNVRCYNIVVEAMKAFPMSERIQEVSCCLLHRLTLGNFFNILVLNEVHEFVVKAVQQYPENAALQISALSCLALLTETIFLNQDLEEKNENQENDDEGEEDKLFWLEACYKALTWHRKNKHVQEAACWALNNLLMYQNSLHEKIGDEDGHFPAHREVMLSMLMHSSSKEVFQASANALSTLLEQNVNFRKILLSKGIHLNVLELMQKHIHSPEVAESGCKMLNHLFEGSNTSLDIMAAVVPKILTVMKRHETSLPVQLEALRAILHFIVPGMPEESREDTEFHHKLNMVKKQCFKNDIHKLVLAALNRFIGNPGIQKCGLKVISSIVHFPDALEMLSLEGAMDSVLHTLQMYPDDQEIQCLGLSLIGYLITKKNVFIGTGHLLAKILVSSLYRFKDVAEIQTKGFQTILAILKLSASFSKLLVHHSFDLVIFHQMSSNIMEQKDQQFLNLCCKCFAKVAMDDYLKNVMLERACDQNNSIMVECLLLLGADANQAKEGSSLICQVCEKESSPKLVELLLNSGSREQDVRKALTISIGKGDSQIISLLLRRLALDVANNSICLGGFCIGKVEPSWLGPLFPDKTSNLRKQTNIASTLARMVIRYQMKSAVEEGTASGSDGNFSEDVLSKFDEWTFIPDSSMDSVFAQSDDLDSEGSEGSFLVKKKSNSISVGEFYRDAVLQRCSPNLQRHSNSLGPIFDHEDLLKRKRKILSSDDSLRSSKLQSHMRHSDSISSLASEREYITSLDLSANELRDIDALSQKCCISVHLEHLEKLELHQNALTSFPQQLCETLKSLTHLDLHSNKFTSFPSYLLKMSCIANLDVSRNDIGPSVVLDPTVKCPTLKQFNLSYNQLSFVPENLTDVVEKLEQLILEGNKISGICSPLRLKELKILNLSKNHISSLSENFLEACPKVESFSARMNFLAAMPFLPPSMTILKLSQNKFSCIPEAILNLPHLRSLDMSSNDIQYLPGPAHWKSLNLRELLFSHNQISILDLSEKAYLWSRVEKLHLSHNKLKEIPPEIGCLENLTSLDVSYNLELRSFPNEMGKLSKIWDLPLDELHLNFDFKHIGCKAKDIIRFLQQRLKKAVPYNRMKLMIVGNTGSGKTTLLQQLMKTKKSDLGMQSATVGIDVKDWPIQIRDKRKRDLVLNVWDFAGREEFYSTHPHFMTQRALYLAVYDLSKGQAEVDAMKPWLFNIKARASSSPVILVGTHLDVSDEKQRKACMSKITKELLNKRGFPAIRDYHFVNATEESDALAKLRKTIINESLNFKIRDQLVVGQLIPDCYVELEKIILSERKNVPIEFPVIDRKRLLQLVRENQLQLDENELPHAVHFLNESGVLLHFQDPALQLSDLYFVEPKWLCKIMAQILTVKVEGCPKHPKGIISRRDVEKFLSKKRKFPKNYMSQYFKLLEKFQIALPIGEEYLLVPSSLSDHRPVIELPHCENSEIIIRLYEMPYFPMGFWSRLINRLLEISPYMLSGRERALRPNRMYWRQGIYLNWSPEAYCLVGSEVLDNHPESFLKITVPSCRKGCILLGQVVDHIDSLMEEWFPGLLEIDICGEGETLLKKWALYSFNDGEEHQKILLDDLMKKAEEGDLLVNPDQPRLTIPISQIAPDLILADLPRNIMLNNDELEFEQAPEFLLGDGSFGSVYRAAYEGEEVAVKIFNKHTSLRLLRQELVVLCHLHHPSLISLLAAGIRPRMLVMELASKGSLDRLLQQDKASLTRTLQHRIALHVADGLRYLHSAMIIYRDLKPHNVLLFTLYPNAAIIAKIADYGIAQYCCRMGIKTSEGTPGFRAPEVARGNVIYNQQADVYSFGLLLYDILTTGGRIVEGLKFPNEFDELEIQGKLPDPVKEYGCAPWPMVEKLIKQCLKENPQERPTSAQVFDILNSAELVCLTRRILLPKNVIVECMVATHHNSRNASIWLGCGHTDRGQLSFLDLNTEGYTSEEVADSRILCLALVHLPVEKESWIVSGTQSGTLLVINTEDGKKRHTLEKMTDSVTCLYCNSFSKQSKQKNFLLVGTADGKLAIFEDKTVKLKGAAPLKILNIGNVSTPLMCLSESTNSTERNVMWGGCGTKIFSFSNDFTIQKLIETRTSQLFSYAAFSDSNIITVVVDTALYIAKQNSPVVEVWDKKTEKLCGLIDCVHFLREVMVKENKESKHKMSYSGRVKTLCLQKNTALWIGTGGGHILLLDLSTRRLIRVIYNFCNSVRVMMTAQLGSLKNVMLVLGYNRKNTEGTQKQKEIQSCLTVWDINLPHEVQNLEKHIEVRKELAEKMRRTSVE
Format: cell-based
Excerpt: Recombinant Cellular LRRK2 AlphaScreen Assay
To determine the activity of compounds against LRRK2 kinase activity in cells, the observed LRRK2 kinase-dependent modulation of LRRK2 Ser 935 phosphorylation (Dzamko et al., 2010, Biochem. J. 430: 405-413) was utilized to develop a quantitative 384 well plate-based immunoassay of LRRK2 Ser935 phosphorylation in the human neuroblastoma cell line SH-SY5Y, engineered to over-express recombinant full length LRRK2 protein.
A BacMam virus expressing full length recombinant LRRK2 was purchased from Invitrogen and amplified by inoculation of SF-9 cells at MOI 0.3 for 4-5 days in Sf-900 III SFM medium supplemented with 3% fetal bovine serum. Infected cell cultures were then centrifuged at 2000 g for 20 minutes, viral supernatant titer determined by anti-gp64 plaque assay and stored at 4° C.
Affinity-purified anti-phospho LRRK2 Ser935 sheep polyclonal antibody (Dzamko et al., 2010, Biochem. J. 430: 405-413) was biotinylated by standard methods (PerkinElmer). Anti-LRRK2 rabbit polyclonal antibody was purchased from Novus Biologicals. AlphaScreen Protein A IgG Kit (including acceptor and donor beads) was purchased from Perkin Elmer.
SH-SY5Y cells were grown in DMEM/F12 medium with 10% dialysed fetal bovine serum and harvested by treatment with 0.5% trypsin-EDTA for 5 minutes at 37° C. followed by centrifugation at 1000 rpm for 4 minutes. The cell pellet was resuspended in Opti-MEM reduced serum media (Invitrogen) at 200,000 cells/ml and mixed with the BacMam LRRK2 virus at M01=50. 50 μl cell solutions were then dispensed to each well of a 384-well plate and incubated at 37° C., 5% CO2 for 24 hours.
Serial dilutions of test compounds were prepared in Opti-MEM reduced serum media (Invitrogen) and 5.6 ul transferred from compound plate to cell assay plate to achieve a top final assay concentration of 10 uM. DMSO was used in certain wells as controls. Cells were incubated at 37° C., 5% CO2 for 60 minutes. The medium was then removed and cells lysed by addition of 20 ul cell lysis buffer (Cell Signaling Technology) and incubation at 4° C. for 20 minutes. 10 ul of antibody/acceptor bead mix [(1/1000 biotinylated-pS935 LRRK2 antibody, 1/1000 total-LRRK2 antibody, 1/100 Acceptor beads in AlphaScreen detection buffer (25 mM Hepes (pH 7.4), 0.5% Triton X-100, 1 mg/ml Dextran 500 and 0.1% BSA)] was then added to each well and plates incubated for 2 hours at ambient temperature in the dark. 10 μl of donor beads solution (1/33.3 donor beads in AlphaScreen detection buffer) was then added to each well. Following incubation for a further 2 hours at ambient temperature in the dark, plates were read on an EnVision™ plate reader at emission 520-620 nm with excitation 680 nm. Dose response curve data was based on sigmoidal dose-response model.
With `CCOc1nc(Nc2cnn(C3CNCCC3(F)F)c2C)nc2[nH]ccc12` (single isomer, unassigned) [Example E117, N-(1-(4,4-difluoropiperidin-3-yl)-5-methyl-1H-pyrazol-4-yl)-4-ethoxy-7H-pyrrolo[2,3-d]pyrimidin-2-amine] the IC50 was 0.00251 µM.

Same assay, conditions: read-out: pIC50 in the recombinant cellular LRRK2 alphaScreen assay (converted)
For `CCOc1nc(Nc2cnn(CCN3CCOC[C@H]3C)c2C)nc2[nH]ccc12` [Example E81, (R)-4-ethoxy-N-(5-methyl-1-(2-(3-methylmorpholino)ethyl)-1H-pyrazol-4-yl)-7H-pyrrolo [2,3-d]pyrimidin-2-amine], the IC50 was ≤ 0.1 µM.
For `CCOc1nc(Nc2cnn(C3(C)CC(N4CCOCC4)C3)c2C)nc2[nH]ccc12` (stereo not shown) [Example E137, 4-ethoxy-N-(5-methyl-1-(1-methyl-3-morpholinocyclobutyl)-1H-pyrazol-4-yl)-7H-pyrrolo[2,3-d]pyrimidin-2-amine], the IC50 was ≤ 0.1 µM.
In the case of `CCOc1nc(Nc2cnn(C3CC(N4CCOCC4)CCC3(F)F)c2Cl)nc2[nH]ccc12` (single isomer, unassigned) [Example E148, trans-N-(5-chloro-1-(2,2-difluoro-5-morpholinocyclohexyl)-1H-pyrazol-4-yl)-4-ethoxy-7H-pyrrolo[2,3-d]pyrimidin-2-amine], the IC50 is reported as ≤ 0.1 µM.
In the case of `CCOc1nc(Nc2cnn(CCN3CCO[C@H](C)C3)c2C)nc2[nH]ccc12` [Example E83, (R)-4-ethoxy-N-(5-methyl-1-(2-(2-methylmorpholino)ethyl)-1H-pyrazol-4-yl)-7H-pyrrolo [2,3-d]pyrimidin-2-amine], the IC50 is reported as ≤ 0.1 µM.
`CCOc1nc(Nc2cnn([C@@H]3CCN(CC(F)F)C3)c2C)nc2[nH]ccc12` [Example E85, (R)—N-(1-(1-(2,2-difluoroethyl)pyrrolidin-3-yl)-5-methyl-1H-pyrazol-4-yl)-4-ethoxy-7H-pyrrolo[2,3-d]pyrimidin-2-amine] was tested, and the IC50 was ≤ 0.1 µM.
For `CCOc1nc(Nc2cnn([C@H]3CCCN(C4COC4)C3)c2C)nc2[nH]ccc12` [Example E136, (S)-4-ethoxy-N-(5-methyl-1-(1-(oxetan-3-yl)piperidin-3-yl)-1H-pyrazol-4-yl)-7H-pyrrolo[2,3-d]pyrimidin-2-amine], the IC50 was ≤ 0.1 µM.
With `CCOc1nc(Nc2cnn(CCN3CCO[C@@H](C(F)F)C3)c2C)nc2[nH]ccc12` [Example E99, (R)—N-(1-(2-(2-(difluoromethyl)morpholino)ethyl)-5-methyl-1H-pyrazol-4-yl)-4-ethoxy-7H-pyrrolo[2,3-d]pyrimidin-2-amine] the IC50 was ≤ 0.1 µM.
For `CCOc1nc(Nc2cnn(C3CCC(N4CCOCC4)CC3)c2Cl)nc2[nH]ccc12` (stereo not shown) [Example E149, N-(5-chloro-1-(4-morpholinocyclohexyl)-1H-pyrazol-4-yl)-4-ethoxy-7H-pyrrolo[2,3-d] pyrimidin-2-amine], the IC50 was ≤ 0.1 µM.
In the case of `CCOc1nc(Nc2cnn(CCN3CCOC[C@@H]3C)c2C)nc2[nH]ccc12` [Example E82, (S)-4-ethoxy-N-(5-methyl-1-(2-(3-methylmorpholino)ethyl)-1H-pyrazol-4-yl)-7H-pyrrolo [2,3-d]pyrimidin-2-amine], the IC50 is reported as ≤ 0.1 µM.
For `CCOc1nc(Nc2cnn(C3CCCC3(C)O)c2C)nc2[nH]ccc12` (single isomer, unassigned) [Example E77, trans-2-(4-((4-ethoxy-7H-pyrrolo-[2,3-d]pyrimidin-2-yl)amino)-5-methyl-1H-pyrazol-1-yl)-1-methylcyclopentanol], the IC50 was ≤ 0.1 µM.
For `CCOc1nc(Nc2cnn([C@H]3CC[C@@H](O)CC3)c2C)nc2[nH]ccc12` [Example E54, cis-4-(4-((4-ethoxy-7H-pyrrolo[2,3-d]pyrimidin-2-yl)amino)-5-methyl-1H-pyrazol-1-yl)-cyclohexanol], the IC50 was ≤ 0.1 µM.
`CCOc1nc(Nc2cnn(C3CN(C4COC4)CCC3(F)F)c2Cl)nc2[nH]ccc12` (single isomer, unassigned) [Example E123, N-(5-chloro-1-(4,4-difluoro-1-(oxetan-3-yl)piperidin-3-yl)-1H-pyrazol-4-yl)-4-ethoxy-7H-pyrrolo[2,3-d]pyrimidin-2-amine] was tested, and the IC50 was ≤ 0.1 µM.
`CCOc1nc(Nc2cnn(C3CCC(O)C3)c2Cl)nc2[nH]ccc12` (racemic) [Example E101, (±)-trans-3-(5-chloro-4-((4-ethoxy-7H-pyrrolo[2,3-d]pyrimidin-2-yl)amino)-1H-pyrazol-1-yl) cyclopentanol] was tested, and the IC50 was ≤ 0.1 µM.
In the case of `CCOc1nc(Nc2cnn(C3CNCCC3(F)F)c2Cl)nc2[nH]ccc12` (single isomer, unassigned) [Example E125, N-(5-chloro-1-(4,4-difluoropiperidin-3-yl)-1H-pyrazol-4-yl)-4-ethoxy-7H-pyrrolo [2,3-d] pyrimidin-2-amine], the IC50 is reported as ≤ 0.1 µM.
`CCOc1nc(Nc2cnn(C3CC(N4CCOCC4)CCC3(F)F)c2Cl)nc2[nH]ccc12` (racemic) [Example E145, (±)-trans-N-(5-chloro-1-(2,2-difluoro-5-morpholinocyclohexyl)-1H-pyrazol-4-yl)-4-ethoxy-7H-pyrrolo[2,3-d]pyrimidin-2-amine] was tested, and the IC50 was ≤ 0.1 µM.
`CCOc1nc(Nc2cnn(C3CNCCC3(F)F)c2C)nc2[nH]ccc12` (single isomer, unassigned) [Example E117, N-(1-(4,4-difluoropiperidin-3-yl)-5-methyl-1H-pyrazol-4-yl)-4-ethoxy-7H-pyrrolo[2,3-d]pyrimidin-2-amine] was tested, and the IC50 was ≤ 0.1 µM.
With `CCOc1nc(Nc2cnn(C3COC3)c2C)nc2[nH]ccc12` [Example E34, 4-ethoxy-N-(5-methyl-1-(oxetan-3-yl)-1H-pyrazol-4-yl)-7H-pyrrolo[2,3-d]pyrimidin-2-amine] the IC50 was ≤ 0.1 µM.
In the case of `CCOc1nc(Nc2cnn(C3CCCC3O)c2Cl)nc2[nH]ccc12` (racemic) [Example E36, (±)-2-(5-chloro-4-((4-ethoxy-7H-pyrrolo-[2,3-d]-pyrimidin-2-yl)amino)-1H-pyrazol-1-yl)cyclopentanol], the IC50 is reported as ≤ 0.1 µM.
In the case of `CCOc1nc(Nc2cnn(C3CCOCC3)c2C)nc2[nH]cc(C#N)c12` [Example E46, 4-ethoxy-2-((5-methyl-1-(tetrahydro-2H-pyran-4-yl)-1H-pyrazol-4-yl)-amino)-7H-pyrrolo-[2,3-d]-pyrimidine-5-carbonitrile], the IC50 is reported as ≤ 0.1 µM.
In the case of `CCOc1nc(Nc2cnn(C3CCC(N4CCOCC4)C3)c2C)nc2[nH]ccc12` (single isomer, unassigned) [Example E108, (trans)-4-ethoxy-N-(5-methyl-1-(3-morpholinocyclopentyl)-1H-pyrazol-4-yl)-7H-pyrrolo[2,3-d]pyrimidin-2-amine], the IC50 is reported as ≤ 0.1 µM.
With `CCOc1nc(Nc2cnn(C3CCCOC3)c2C)nc2[nH]ccc12` (single isomer, unassigned) [Example E30, 4-ethoxy-N-(5-methyl-1-(tetrahydro-2H-pyran-3-yl)-1H-pyrazol-4-yl)-7H-pyrrolo-[2,3-d]pyrimidin-2-amine] the IC50 was ≤ 0.1 µM.

— patent US10618901B2 (GlaxoSmithKline Intellectual Property Development Limited, priority 2014, dated 2020)
